Consider 25 compounds from patent US20110245284A1, “Alkoxy- and Alkylthio-Substituted Anilinopyrimidines” (Bayer CropScience AG, priority 2008, published 2011).

The term chromatographic logP denotes a lipophilicity value derived from retention on a column. A low value points to a more hydrophilic compound.

Molecules are shown by their SMILES.

Series [1] deals with Sphaerotheca fuliginea. The series can be described thus: Sphaerotheca test (cucumber) / protective. It is filed as in vivo. To be noted: Podosphaera fuliginea, 168 h, active compound concentration 500 ppm, evaluation 7 days after inoculation, read-out: efficacy. The method, then: The plants are subsequently placed in a greenhouse at 70% relative atmospheric humidity and a temperature of 23° C.

The subject of series [2] is Leptosphaeria nodorum. The series can be described thus: Leptosphaeria nodorum test (wheat) / protective. Format: in vivo. Conditions: Parastagonospora nodorum, active compound concentration 500 ppm, evaluation 7-9 days after inoculation, read-out: efficacy. Here is the method: Thereafter, the plants are placed in a greenhouse at 90% relative atmospheric humidity and a temperature of 22° C.

For series [3], the system named is Pyrenophora teres. The series can be described thus: Pyrenophora teres test (barley) / protective. It is filed as in vivo. To be noted: 192 h, active compound concentration 500 ppm, evaluation 8 days after inoculation, read-out: efficacy. Here is the method:
After the spray coating has dried on, the plants are sprayed with a spore suspension of Pyrenophora teres. The plants remain in an incubation cabinet for 48 hours at 20° C. and 100% relative atmospheric humidity.

Series [4] deals with Pyricularia oryzae. The series can be described thus: whole plant or invertebrate. It is filed as in vivo. Conditions: 120 h, read-out: efficacy.
Series [5] can be described thus: logP by LC-MS on reversed-phase columns (C 18), method [b], acidic range pH 2.7. Format: physicochemical. To be noted: pH 2.7, log p. Here is the method: (§1) The logP values were determined in accordance with EEC Directive 79/831 Annex V.A8 by HPLC (High Performance Liquid Chromatography) on reversed-phase columns (C 18), using the methods below:
[b] The LC-MS determination in the acidic range is carried out at pH 2.7 using the mobile phases 0.1% aqueous formic acid and acetonitrile (contains 0.1% formic acid), linear gradient from 10% acetonitrile to 95% acetonitrile.

Series [6] has as its system Rhizoctonia solani. The series can be described thus: Rhizoctonia test (rice) / protective. It is filed as in vivo. To be noted: 96 h, active compound concentration 250 ppm, evaluation 4 days after inoculation, read-out: efficacy.
The nature of series [7]: logP by LC-MS on reversed-phase columns (C 18), method [c], neutral range pH 7.8. Format: physicochemical. To be noted: pH 7.8. The method, then:
as §1
[c] The LC-MS determination in the neutral range is carried out at pH 7.8 using the mobile phases 0.001 molar aqueous ammonium bicarbonate solution and acetonitrile, linear gradient from 10% acetonitrile to 95% acetonitrile.

Series [8] has as its system Venturia inaequalis. The series can be described thus: Venturia test (apple) / protective. Format: in vivo. Conditions: 240 h, active compound concentration 100 ppm, evaluation 10 days after inoculation, read-out: efficacy. Here is the method: After the spray coating has dried on, the plants are inoculated with an aqueous conidia suspension of the apple scab pathogen Venturia inaequalis and then remain for 1 day in an incubation cabinet at about 20° C. and 100% relative atmospheric humidity.

In series [9] the test system is Alternaria solani. The series can be described thus: Alternaria test (tomato) / protective. Format: in vivo. Conditions: 72 h, active compound concentration 100 ppm, evaluation 3 days after inoculation, read-out: efficacy. Here is the method:
The plants are then placed in an incubation cabinet at about 20° C. and 100% relative atmospheric humidity.

The nature of series [10]: logP by HPLC on reversed-phase columns (C 18), method [a], acidic range pH 2.3. It is filed as physicochemical. The method, then:
as §1
[a] The determination is carried out in the acidic range at pH 2.3 using the mobile phases 0.1% aqueous phosphoric acid and acetonitrile, linear gradient from 10% acetonitrile to 95% acetonitrile.

Take `CCC[S+]([O-])c1ccc(Nc2ncc(Cl)c(NC3CC3)n2)cc1` (stereo not drawn) [Example 98]: the pest or weed control at 500 ppm in series [1], in series [2] and in [3] was not below 70% throughout. Moreover, the pest or weed control at 250 ppm in series [4] is not below 80%. In addition, in series [5], the chromatographic logP worked out at 1.78.

In the case of `COCc1cccc(Nc2ncc(Cl)c(NC3CCC3C)n2)c1` (stereo not drawn) [Example 207], the pest or weed control at 500 ppm in series [2] is not below 70%. Further, the pest or weed control at 250 ppm in series [4] and in [6] was not below 80% in each case. For the same compound, the results for the chromatographic logP in [5] and in series [7] were 2.44 and 4, respectively.

As for `COCC(O)c1cccc(Nc2ncc(Cl)c(NC3CC3)n2)c1` (stereo not drawn) [Example 194], the pest or weed control at 500 ppm in series [1], in series [2] and in [3] was not below 70% in each case. Further, the chromatographic logP in series [5] was determined as 1.26.

Turning to `CCOCCSc1cccc(Nc2ncc(C(F)(F)F)c(NC3CC3)n2)c1` [Example 190], the pest or weed control at 500 ppm in series [1], in [2] and in series [3] was not below 70% in each case. In addition, the chromatographic logP in series [5] was found to be 3.87; in [7], 4.05.

Consider `CCCSc1cccc(Nc2ncc(Cl)c(NC3CC3C)n2)c1` (stereo not drawn) [Example 63], for which the pest or weed control at 100 ppm in [8] and in [9] was not below 70% throughout. In series [2], the pest or weed control at 500 ppm is not below 70%. In series [5], this compound showed a chromatographic logP of 3.58.

Consider `CCC(c1cccc(Nc2ncc(Cl)c(NC3CC3)n2)c1)S(=O)(=O)CC` (stereo not drawn) [Example 120], for which the pest or weed control at 100 ppm in series [8] and in series [9] was not below 70% throughout. In addition, the pest or weed control at 500 ppm in series [1] and in series [2] was not below 70% throughout. In addition, the chromatographic logP came to 1.94 in series [5] and 2.83 in series [7].

As for `CCC(C)[S+]([O-])c1cccc(Nc2ncc(Cl)c(NC3CC3)n2)c1` (stereo not drawn) [Example 175], the pest or weed control at 500 ppm in [1], in [2] and in series [3] was not below 70% throughout. For the same compound, the chromatographic logP is 2.12 in [5] and 2.74 in series [7].

As to `CCC[S+]([O-])c1cccc(Nc2ncc(C(F)(F)F)c(NC3CCC3)n2)c1` (stereo not drawn) [Example 35], the pest or weed control at 100 ppm in series [8] and in series [9] was not below 70% each time. For the same compound, the pest or weed control at 500 ppm in series [1] and in series [2] was not below 70% each time. The chromatographic logP in series [5] came to 2.97.

`CCCCS(=O)(=O)c1cccc(Nc2ncc(Br)c(NC3CC3)n2)c1` [Example 125]: the pest or weed control at 100 ppm in [8] and in series [9] was not below 70% each time. Further, in series [2], the pest or weed control at 500 ppm was not below 70%. Also, the chromatographic logP in [5] was found to be 2.81; in [7], 3.32.

Regarding `CCC(C)SC(C)c1cccc(Nc2ncc(C(F)(F)F)c(NC3CC3)n2)c1` (stereo not drawn) [Example 132], the pest or weed control at 500 ppm in series [1], in series [2] and in [3] was not below 70% each time. For the same compound, the chromatographic logP in series [5] was determined as 5.09; in series [7], 5.38.

As for `CCCC[S+]([O-])c1cccc(Nc2ncc(Cl)c(NC3CC3)n2)c1` (stereo not drawn) [Example 124], the pest or weed control at 500 ppm in series [1], in series [2] and in series [3] was not below 70% in each case. Moreover, the results for the chromatographic logP in series [5] and in series [7] were 2.13 and 2.71, respectively.

Regarding `CCCSc1cccc(Nc2ncc(Cl)c(NC(C)C)n2)c1` [Example 31, 5-Chloro-N^4-(propan-2-yl)-N^2-[3-(propylsulphanyl)phenyl]pyrimidine-2,4-diamine], the chromatographic logP was determined as 3.27 in series [10] (pH 2.3, logP (pH2.3)) and 3.3 in [5]. The pest or weed control at 500 ppm in series [1] and in series [2] was not below 70% in each case. Further, the pest or weed control at 250 ppm in [6] was not below 80%.

Take `CCCS(=O)(=O)c1cccc(Nc2ncc(C(F)(F)F)c(NC3CCC3)n2)c1` [Example 34, N^4-Cyclobutyl-N^2-[3-(propylsulphonyl)phenyl]-5-(trifluoromethyl)pyrimidine-2,4-diamine]: the chromatographic logP in series [10] (pH 2.3, logP (pH2.3)) amounted to 3.46; in [5], 3.46. For the same compound, the pest or weed control at 500 ppm in [1] and in [2] was not below 70% throughout. For the same compound, in series [6], the pest or weed control at 250 ppm was not below 80%.

For `CC(C)C[S+]([O-])c1cccc(Nc2ncc(Cl)c(NC3CC3)n2)c1` (stereo not drawn) [Example 162], the pest or weed control at 100 ppm in series [9] was not below 70%. The pest or weed control at 500 ppm in [2] is not below 70%. Besides, the chromatographic logP in [5] worked out at 2.11; in series [7] it was 2.81.

For the compound `CCOCCOc1cc(Nc2ncc(C(F)(F)F)c(NC3CC3)n2)ccc1C` [Example 79], the pest or weed control at 500 ppm in series [1] and in series [2] was not below 70% throughout. Moreover, the pest or weed control at 250 ppm in [4] and in [6] was not below 80% in each case. Further, the chromatographic logP in series [5] is 3.66; in series [7], 4.15.

As to `CCC(C)Sc1cccc(Nc2ncc(Cl)c(NC3CCC3)n2)c1` (stereo not drawn) [Example 6], in series [2], the pest or weed control at 500 ppm is not below 70%. Further, the pest or weed control at 250 ppm in series [4] and in series [6] was not below 80% in each case. The chromatographic logP in series [5] came out at 4.14.

Turning to `CCSC(C)c1cccc(Nc2ncc(Cl)c(NC(C)C)n2)c1` (stereo not drawn) [Example 131], the pest or weed control at 500 ppm in series [1], in series [2] and in [3] was not below 70% throughout. Besides, the chromatographic logP in series [5] stood at 2.91; in series [7] it was 4.65.

As to `CC[S+]([O-])c1cccc(Nc2ncc(Cl)c(NC3CC3)n2)c1` (stereo not drawn) [Example 114], the chromatographic logP in series [10] (pH 2.3, log p) worked out at 1.49; in series [5], 1.48; in [7], 2.11. Besides, the pest or weed control at 500 ppm in series [1], in [2] and in series [3] was not below 70% each time.

In the case of `CCCC[S+]([O-])c1cccc(Nc2ncc(Cl)c(NC3CCC3)n2)c1` (stereo not drawn) [Example 171], the pest or weed control at 100 ppm in [8] and in series [9] was not below 70% in each case. In addition, in [2], the pest or weed control at 500 ppm was not below 70%. The chromatographic logP in series [5] was determined as 2.48; in series [7], 3.31.

As for `COCCOc1cccc(Nc2ncc(Cl)c(NC3CC3C)n2)c1` (stereo not drawn) [Example 209], the pest or weed control at 500 ppm in series [2] and in [3] was not below 70% in each case.

Take `COCc1cccc(Nc2ncc(Cl)c(NC3CC3C)n2)c1` (stereo not drawn) [Example 65]: the pest or weed control at 100 ppm in series [8] and in series [9] was not below 70% each time. The pest or weed control at 500 ppm in series [2] was not below 70%. The results for the chromatographic logP in [5] and in [7] were 2.03 and 3.3, respectively.

On to `CCCS(=O)(=O)c1ccc(Nc2ncc(Cl)c(NC3CC3)n2)cc1` [Example 97], for which the pest or weed control at 500 ppm in series [2] and in series [3] was not below 70% throughout. The pest or weed control at 250 ppm in series [4] is not below 80%. Moreover, the values for the chromatographic logP in series [5] and in series [7] were 2.42 and 2.76, respectively.

`CCOCCCSc1cccc(Nc2ncc(Cl)c(NC3CC3)n2)c1` [Example 204]: the pest or weed control at 500 ppm in series [2] and in [3] was not below 70% each time. Besides, the chromatographic logP in series [5] was found to be 3.02; in series [7], 4.22.

Regarding `CCCCS(=O)(=O)c1cccc(Nc2ncc(Br)c(NC3CCC3)n2)c1` [Example 151], in series [2], the pest or weed control at 500 ppm was not below 70%. The pest or weed control at 250 ppm in [4] and in [6] was not below 80% in each case. Moreover, the chromatographic logP in series [5] worked out at 3.24; in series [7], 3.88.

`CC[S+]([O-])c1cccc(Nc2ncc(Br)c(NC3CCC3)n2)c1` (stereo not drawn) [Example 112]: the pest or weed control at 500 ppm in series [1], in series [2] and in series [3] was not below 70% in each case. Moreover, the chromatographic logP in series [5] was 1.88; in [7], 2.63.
